Like-named read-outs stand apart in the source and are kept apart here.
Assays:
male Balb/C mice [1] = test: Gastric retention and small intestine transit, 30 min after Tc-sulfur colloid meal; assay type: in vivo; conditions: 30 min after meal, tegaserod 0.1 mg/kg ip, lubiprostone 0.1 mg/kg oral, compound C 50 mg/kg oral; for geometric center (GC) of the small intestine: 1-way ANOVA or Student's t-test, FIG. 3; for stomach retention, percentage of total radioactivity left in the stomach: FIG. 5
Experimental: Male Balb/C mice were fasted overnight with free access to water. Water was then removed for 30 minutes. Each mouse was subsequently gavaged a liquid meal of 0.5% methylcellulose (weight-to-volume w/v) and 10% corn oil (volume-to-volume v/v) in water containing 5-10 μCi of an non-absorbable Tc-sulfur colloid radioactive marker as well as compound C at doses between 2 and 50 mg/kg (10 mL/kg), or lubiprostone at 100 μg/kg. A group was dosed with tegaserod (100 μg/kg) injected ip just prior to receiving vehicle by oral gavage. Control animals received vehicle only. Animals were euthanized 30 minutes after dosing and their GI tract was excised from the stomach down. The stomach was counted alone. The small intestine was extended and cut into 10 equally sized pieces, labeled 1 to 10 from stomach to caecum. Each piece of the small intestine, and the stomach, were counted for radioactivity. The geometric center (GC) of the small intestine was calculated according to GC=(Σ(i×Ci))/(ΣCi), where i is the label of the segment (from 1 to 10) and Ci is the number of counts. GC is a number between 1 and 10. The closer GC is to 10, the faster the small intestinal transit. Gastric retention was calculated as percent of total dose counted. GC's and gastric retentions were compared between dose and vehicle groups using a Student's t-test. A P-value of less than 0.05 was considered statistically significant, as depicted in FIGS. 3-5.

male Balb/C mice [2] = test: Total gastrointestinal transit, carmine red dye meal, time to first red pellet and feces weight; assay type: in vivo; conditions: oral gavage 5 and 50 mg/kg
Experimental: Briefly, mice were administered a meal containing a non-absorbable red dye (carmine) and were monitored for 3 hours. Feces were collected and time of expulsion was recorded. Feces were weighed fresh and again after overnight drying. Time to first red-colored feces was used as a measure of total GI transit time. Total weight of wet and dry feces was used as a measure of fluid secretion.
Male Balb/C mice were fasted overnight with free access to water. They were then given access to food and water for 30 minutes. They were finally moved to empty plastic cages with no access to food or water. After 1 hour, each mouse was fed a liquid meal of 0.5% methylcellulose (weight-to-volume w/v) in water containing 3% carmine dye (w/v) as well as doses of the test compound at 5 and 50 mg/kg (10 mL/kg) with a gavage needle. Control animals received vehicle only. Each animal was held in an individual cage for the following 3 hours. The expulsion time of each feces was recorded to the nearest 5 seconds. Each feces was placed in a tared vial and the vial was capped. Fresh feces were weighed and the vials were kept uncapped overnight at 37° C. The feces were then weighed again. Average times to first red-colored feces for vehicle- and compound-dosed animals were compared using a Student's t-test (two-sided, unequal variance). A P-value of 0.05 or less was considered statistically significant. […]

P2Y2 receptor = molecular target: T1, P2Y2 receptor (Homo sapiens, UniProt P41231); test: IP1 accumulation assay (kit IP-one HTRF); assay type: cell-based
T1 construct: host or cells: cells not identified for the IP1 assay
Experimental: The compounds described herein may be tested for their ability to elicit P2Y2 receptor activity using in vitro IP1 accumulation, intracellular calcium mobilization, mucus production and ciliary beat frequency assays, ex vivo Short Current Circuit and fluid transport assays for P2Y2 and other P2Y receptor activity assays, as described below.
Cells in midlog phase are collected with PBS-EDTA, washed and resuspended in medium without antibiotics at a concentration of 2×10^5 cells/ml. Cells (200 μL or 40.000 cells) are then distributed into a 96 well plate (Cellstar, Greiner, 655083). The plate is incubated overnight at 37° C. in a cell culture incubator. The next morning, the medium is removed and replaced by 50 μL of agonist diluted in the stimulation buffer provided with the kit IP-one (CisBio, 621P1PEB). The plate is incubated for 1 h at 37° C. in a cell culture incubator. 25 μL of the antibody diluted in lysis buffer is then added to each well. 25 μL of the IP1-d2 diluted in lysis buffer is added to each well and the plate is incubated for 1 h. at room temperature. The plate is then read on a Rubystar and dose-response curves are generated by plotting the ligand concentrations versus the DeltaF ratio.
EC50 values for certain compounds were obtained through an IP1 accumulation assay (kit IP-one HTRF), as described above.

male Balb/C mice [3] = test: Large intestine transit, 2.5 hr after Tc-sulfur colloid meal; assay type: in vivo; conditions: 2.5 hr after meal; for gastric retention (percentage of total radioactivity left in stomach): compound C up to 50 mg/kg oral, lubiprostone 0.1 mg/kg oral, FIG. 6
Experimental: Male Balb/C mice were fasted overnight with free access to water. Water was then removed for 30 min. Each mouse was subsequently gavaged a liquid meal of 0.5% methylcellulose (weight-to-volume w/v) and 10% corn oil (volume-to-volume v/v) in water containing 5-10 μCi of an non-absorbable Tc-sulfur colloid radioactive marker containing the compound C at doses of 5, 10 and 50 mg/kg (10 mL/kg), or lubiprostone at 100 μg/kg. A group was dosed with tegaserod (100 μg/kg) injected ip just prior to receiving vehicle by oral gavage. Control animals received vehicle only. Animals were kept for 30 minutes in empty cages then given access to food and water at libitum. They were euthanized 2.5 hours after dosing and their GI tract was excised from the stomach down. The stomach and small intestine were counted alone. The large intestine was extended and cut into 3 equally sized pieces, labeled 1 to 3 from caecum to rectum. Each section was counted individually. Feces, labeled 4, were collected, weighed, and counted. The geometric center (GC) of the large intestine/feces portion of the GI tract was calculated according to GC=(Σ(i×Ci))/(ΣCi), where i is the label of the segment (from 1 to 4) and Ci is the number of counts. GC is a number between 1 and 4. The closer GC is to 4, the faster the intestinal transit. Between 7 and 12 mice were used for each dose group. Gastric retention was calculated as percent of total dose counted. Gastric retentions between compound-dosed and vehicle-dosed animals were compared using a one-way ANOVA test and a Dunnett post-test. GC's and feces weights were compared between compound- and vehicle-dosed animals using a similar statistical methodology. In all cases, a P-value of less than 0.05 was considered statistically significant.

[4] = compound falls in class +++, read-out: EC50, class +++ (<500 nM)
[5] = X = compound falls in class +, read-out: EC50, class + (>1000 nM)

T1 sequence (P41231 whole entry): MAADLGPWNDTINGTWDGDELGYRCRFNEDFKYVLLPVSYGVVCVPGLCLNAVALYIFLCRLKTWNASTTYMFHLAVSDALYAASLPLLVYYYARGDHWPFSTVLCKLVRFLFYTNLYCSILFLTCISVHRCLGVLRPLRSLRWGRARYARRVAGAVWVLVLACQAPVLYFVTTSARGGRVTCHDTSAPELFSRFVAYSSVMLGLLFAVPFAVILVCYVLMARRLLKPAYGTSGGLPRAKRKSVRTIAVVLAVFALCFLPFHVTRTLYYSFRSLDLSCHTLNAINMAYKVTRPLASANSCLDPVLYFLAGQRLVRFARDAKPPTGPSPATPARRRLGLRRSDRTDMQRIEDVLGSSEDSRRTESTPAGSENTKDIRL

SMILES	geometric center (GC) of the small intestine (male Balb/C mice [1])	stomach retention, percentage of total radioactivity left in the stomach (male Balb/C mice [1])	EC50 (P2Y2 receptor; [4]) [nM]	EC50 (P2Y2 receptor; [5]) [nM]	further results
COc1ccc(O[C@@H]2O[C@H](COP(=O)(O)OP(=O)(O)OP(=O)(O)OP(=O)(O)OC[C@H]3O[C@@H](n4cnc5c(=N)n(C)cnc54)[C@H](O)[C@@H]3O)[C@@H](O)[C@H]2O)cc1 [Compound C]	No statistical significance was observed	No statistical significance was found	< 500		total weight of feces (wet, dry) and water content produced during 3 hours (male Balb/C mice [2]; 3 hrs after dosing, FIG. 2): dose-dependent increase in wet, and dry feces, as well as in water content; time to first red-colored feces (total GI transit time) (male Balb/C mice [2]; vs vehicle, FIG. 1): time to first red pellet decreases with increasing dose; gastric retention (percentage of total radioactivity left in stomach) (male Balb/C mice [3]): virtually no effect on gastric retention; geometric center (GC) of the large intestine and feces (male Balb/C mice [3]; oral 5, 10 and 50 mg/kg, FIG. 7): calculated large intestine geometric center increases with increasing dose; percentage of total radioactivity found in the feces (male Balb/C mice [3]; oral 5, 10 and 50 mg/kg, FIG. 8): dose-dependent increase of % total radioactivity starting at 5 mg/kg dose at a percentage equivalent to that obtained with lubiprostone and tegaserod; dose with statistically significant effect on large intestine transit (male Balb/C mice [3]; oral, P<0.05 vs vehicle): ≥ 10 mg/kg; geometric center (GC) of the large intestine, effect compared with reference drugs (male Balb/C mice [3]; compound C 5 mg/kg oral): equivalent to that obtained with doses of lubiprostone (0.1 mg/kg) and tegaserod (0.1 mg/kg)
CNc1c2ncn([C@@H]3O[C@H](COP(=O)(O)OP(=O)(O)OP(=O)(O)OP(=O)(O)OC[C@H]4O[C@@H](Oc5ccc(OC)cc5)[C@H](O)[C@@H]4O)[C@@H](O)[C@H]3O)c2nc[n+]1C [Compound D]			< 500		
COc1ccc(O[C@@H]2O[C@H](COP(=O)(O)OP(=O)(O)OP(=O)(O)OC[C@H]3O[C@@H](n4cnc5c(=N)n(C)cnc54)[C@H](O)[C@@H]3O)[C@@H](O)[C@H]2O)cc1 [Compound E]				> 1000	
COc1ccc(N(C)C[C@@H]2O[C@H](COP(=O)(O)OP(=O)(O)OP(=O)(O)O)[C@@H](O)[C@H]2O)cc1 [Compound J, ((2R,3S,4R)-3,4-dihydroxy-5-(((4-methoxyphenyl)(methyl)amino)methyl)tetrahydrofuran-2-yl)methyltriphosphoric acid]				> 1000	
O=P(O)(O)OP(=O)(O)OP(=O)(O)OC[C@H]1O[C@@H](CNc2cccnc2)[C@H](O)[C@@H]1O [Compound K, ((2R,3S,4R,5S)-3,4-Dihydroxy-5-((pyridin-3-ylamino)methyl)tetrahydrofuran-2-yl)methyltriphosphoric acid]				> 1000	
O=P(O)(O)OP(=O)(O)OP(=O)(O)OC[C@H]1O[C@@H](Oc2cccnc2)[C@H](O)[C@@H]1O [Compound M, 3-Pyridyl-β-D-ribofuranosid-5′-triphosphate]				> 1000	
COc1ccc(O[C@@H]2O[C@H](COP(=O)(O)OP(=O)(O)OP(=O)(O)OP(=O)(O)OC[C@H]3O[C@@H](c4c[nH]c(=O)[nH]c4=O)[C@H](O)[C@@H]3O)[C@@H](O)[C@H]2O)cc1 [Compound N]					EC50 (P2Y2 receptor; X in this column = compound falls in class ++, read-out: EC50, class ++ (500-1000 nM)): 500 to 1000 nM
Cn1cnc2c(ncn2[C@@H]2O[C@H](COP(=O)(O)OP(=O)(O)OP(=O)(O)O)[C@@H](O)[C@H]2O)c1=N [Compound P, 1-Methyl-Adenosine-5′-triphosphate]			< 500		
CCCCC(F)(F)[C@@]1(O)CC[C@H]2[C@@H](CC(=O)[C@@H]2CCCCCCC(=O)O)O1 [lubiprostone]	No statistical significance was observed	No statistical significance was found			gastric retention (percentage of total radioactivity left in stomach) (male Balb/C mice [3]): significant delay in gastric emptying
[H]/N=C(/NCCCCC)N/N=C/c1c[nH]c2ccc(OC)cc12 [tegaserod]	No statistical significance was observed	statistically significance for tegaserod versus vehicle using Student's t-test			

From US8569259B2, “Adenosine analogs and their use” (Microdose Therapeutx, Inc., priority 2006, dated 2013)
